US20090306053A1, “Highly selective rho-kinase inhibitor” (priority 2005, published 2009)

Assays:
Type in all cases: biochemical
[1] = target: T1, Recombinant human AuroraA (Homo sapiens, UniProt O14965); assay: AuroraA kinase assay (Kinase-Glo ATP consumption); parameters: key to Realative Inhibitory Activity AuroraA: ratio relative to ROCKII-inhibiting activity defined as 1.0 (from IC50s); conditions: for IC50: 1 μM ATP, read-out: Kinase Inhibiting Activity (IC50) AuroraA; for Realative Inhibitory Activity AuroraA: relative ratio to ROCKII (=1.0), based on IC50 values
T1 construct: purchased Upstate
T1 sequence (O14965 1-403): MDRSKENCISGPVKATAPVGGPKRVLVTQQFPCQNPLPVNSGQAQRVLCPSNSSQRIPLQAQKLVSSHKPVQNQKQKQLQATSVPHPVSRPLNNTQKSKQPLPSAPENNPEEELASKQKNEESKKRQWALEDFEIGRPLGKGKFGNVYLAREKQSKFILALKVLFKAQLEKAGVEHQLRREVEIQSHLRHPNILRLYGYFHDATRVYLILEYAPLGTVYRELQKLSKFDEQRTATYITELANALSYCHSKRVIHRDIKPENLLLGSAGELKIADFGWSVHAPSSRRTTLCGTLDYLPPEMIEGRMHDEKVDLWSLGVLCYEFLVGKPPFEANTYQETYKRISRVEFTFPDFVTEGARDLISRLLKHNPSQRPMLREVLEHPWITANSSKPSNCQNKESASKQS
Experimental: Recombinant human AuroraA (Upstate) was used to evaluate its activity to phosphorylate a substrate peptide (LRRASLG, Promega) was evaluated.
(§1) In a system of the total volume of 50 μL, the reaction of the above-mentioned enzyme (40 ng) was carried out at room temperature for 80 minutes in the presence of 40 mM of MOPS-NaOH (pH 7.5), 20 mM of magnesium chloride, 200 μM of the above peptide, and 1 μM of ATP. After the kinase reaction, the luminescence intensity corresponding to the amount of ATP in the reaction system was measured using a luciferase reagent (Kinase-Glo Luminescent Kinase Assay kit, Promega) with a chemiluminescence measurement apparatus (MicroLumat, Berthold Technologies). The amount of ATP consumed by the phosphorylation reaction was calculated by comparison with the luminescence intensity in the system when the kinase reaction was not carried out.
(§2) With this system, the kinase reaction was carried out in the presence of a compound at various concentrations, and the IC50 value of the compound was determined based on the resulting compound concentration-response curve for ATP consumption.
(§3) The ROCKII-inhibiting activity of a compound to be tested was defined as 1.0, and the inhibitory activities of the compound against kinases (PKA, PKG, CaMKII, and AuroraA) other than ROCKII were calculated as relative ratios to the ROCKII-inhibiting activity, based on the IC50 values calculated using the above-described evaluation system.

Purified rat CaMKII [2] = assay: CaMKII kinase assay (Kinase-Glo ATP consumption); conditions: relative ratio to ROCKII (=1.0), based on IC50 values
Experimental: (§4) Purified rat CaMKII (containing CaMKIIα and small amounts of β, γ, and δ isoforms, Upstate) was used to evaluate its activity to phosphorylate a substrate peptide (KKALRRQETVDAL, Upstate).
as §1, with “(33” for “(40”, “60” for “80”, “50” for “40”, “Tris-HCl (pH7.5), 10” for “MOPS-NaOH (pH 7.5), 20”, “2 mM of calcium chloride, 0.04 mg/mL of BSA, 16 μg/mL of purified bovine brain calmodulin (Sigma), 0.5 mM of DTT, 50 µM” for “200 μM”
as §2, §3

Purified rat CaMKII [3] = target: T2, Purified rat CaMKII (Rattus norvegicus, UniProt P11275); assay: CaMKII kinase assay (Kinase-Glo ATP consumption); conditions: 1 μM ATP; read-out: Kinase Inhibiting Activity (IC50) CaMKII
T2 construct: purchased Upstate
Experimental: as §4
as §1, with “(33” for “(40”, “60” for “80”, “50” for “40”, “Tris-HCl (pH7.5), 10” for “MOPS-NaOH (pH 7.5), 20”, “2 mM of calcium chloride, 0.04 mg/mL of BSA, 16 μg/mL of purified bovine brain calmodulin (Sigma), 0.5 mM of DTT, 50 µM” for “200 μM”
as §2, §3

Recombinant mouse MKK4 = target: T3, Recombinant mouse MKK4 (Mus musculus, UniProt P47809); assay: MKK4 kinase assay (Kinase-Glo ATP consumption); conditions: 1 μM ATP; read-out: Kinase Inhibiting Activity (IC50) MKK4
T3 construct: from 34th to 397th amino acids; purchased Upstate
T3 sequence (P47809 34-397): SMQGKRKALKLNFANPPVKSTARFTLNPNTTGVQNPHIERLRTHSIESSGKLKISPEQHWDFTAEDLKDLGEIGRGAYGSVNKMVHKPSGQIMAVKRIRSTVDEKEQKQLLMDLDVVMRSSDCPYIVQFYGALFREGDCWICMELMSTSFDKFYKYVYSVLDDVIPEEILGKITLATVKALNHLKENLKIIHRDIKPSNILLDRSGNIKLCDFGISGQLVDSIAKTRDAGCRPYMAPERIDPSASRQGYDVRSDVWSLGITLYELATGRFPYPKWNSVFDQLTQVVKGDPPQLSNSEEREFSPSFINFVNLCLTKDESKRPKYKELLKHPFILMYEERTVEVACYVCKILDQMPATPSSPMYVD
Experimental: as §1, with “(400” for “(40”, “25” for “40”, “Tris-HCl” for “MOPS-NaOH”, “10” for “20”, “0.02 mg/mL” for “200 μM”, “JNK1α1,” for “peptide,”
as §2

Recombinant human Src = target: T4, Recombinant human Src (Homo sapiens, UniProt P12931); assay: Src kinase assay (Kinase-Glo ATP consumption); conditions: 0.5 μM ATP; read-out: Kinase Inhibiting Activity (IC50) Src
T4 construct: purchased Upstate
Experimental: Recombinant human Src (Upstate) was used to evaluate its activity to phosphorylate a substrate peptide (KVEKIGEGTYGVVYK, Upstate).
as §1, with “(6 Units)” for “(40 ng)”, “10” for “20”, “25 mM of manganese chloride, 300” for “200”, “0.5” for “1”
as §2

Molecule | IC50 [1] | Realative Inhibitory Activity AuroraA [1] | Realative Inhibitory Activity CaMKII (Purified rat CaMKII [2]) | IC50 (Purified rat CaMKII [3]) | IC50 (Recombinant mouse MKK4) | IC50 (Recombinant human Src)
CNCC(=O)N1CCCN(S(=O)(=O)c2cccc3cncc(F)c23)[C@@H](C)C1.Cl.Cl [Example 2, 2-(S)-1-(4-fluoroisoquinoline-5-sulfonyl)-2-methyl-4-(N-methylglycyl)homopiperazine dihydrochloride] | 92.2 µM | >3000 | 890 | 26.7 µM | > 100 µM | > 100 µM
2-(S)-1-(4-fluoroisoquinoline-5-sulfonyl)-4-glycyl-2-methylhomopiperazine dihydrochloride [Example 1] | 84.5 µM | 2817 | 763 | 22.9 µM | > 100 µM | > 100 µM
